From PubChem BioAssay (NCI)
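Results reflect a 48-hour exposure of cells in 96-well plates to compound at five concentrations. GI50 = concentration required for 50% inhibition of growth. TGI denotes the concentration required for complete inhibition of growth.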

Experiments:
Test in all cases: NCI-60 cell line screen, 48 h
CCRF-CEM leukemia = system: CCRF-CEM leukemia
TK-10 renal = system: TK-10 renal
SF-539 CNS = system: SF-539 CNS
SF-268 CNS = system: SF-268 CNS
OVCAR-5 ovarian = system: OVCAR-5 ovarian
SK-OV-3 ovarian = system: SK-OV-3 ovarian
NCI-H23 lung = system: NCI-H23 lung
SK-MEL-28 melanoma = system: SK-MEL-28 melanoma
BT-549 breast = system: BT-549 breast
T-47D breast = system: T-47D breast

Compound | TGI (CCRF-CEM leukemia) | TGI (TK-10 renal) | TGI (SF-539 CNS) | TGI (SF-268 CNS) | TGI (OVCAR-5 ovarian) | TGI (SK-OV-3 ovarian) | TGI (NCI-H23 lung) | TGI (SK-MEL-28 melanoma) | GI50 (BT-549 breast) | TGI (BT-549 breast) | GI50 (SK-MEL-28 melanoma) | GI50 (TK-10 renal) | GI50 (SF-539 CNS) | GI50 (SF-268 CNS) | GI50 (OVCAR-5 ovarian) | GI50 (SK-OV-3 ovarian) | GI50 (T-47D breast) | TGI (T-47D breast) | GI50 (NCI-H23 lung) | GI50 (CCRF-CEM leukemia)
CC(=O)CC(=O)CCC(=O)Nc1cccc(C(F)(F)F)c1 | > 100 µM | > 100 µM | > 100 µM | > 100 µM | > 100 µM | > 100 µM | > 100 µM | – | – | – | – | – | – | – | – | – | – | – | – | –
N#C/C(=C1\OC(=N)C(c2ccc(Cl)cc2Cl)C1=O)c1ccc(Cl)cc1Cl (configuration not stated) | – | > 100 µM | > 100 µM | > 100 µM | > 100 µM | > 100 µM | > 100 µM | > 100 µM | – | – | – | – | – | – | – | – | – | – | – | –
COC(=O)c1cc([N+](=O)[O-])cc([N+](=O)[O-])c1Cl | – | 6.48 µM | 4.22 µM | 25.4 µM | 10.2 µM | 31.3 µM | 69.6 µM | 4.08 µM | 10.7 µM | 22.6 µM | 1.94 µM | 2.48 µM | 1.98 µM | 12.7 µM | 2.7 µM | 17.5 µM | 1.71 µM | 4.21 µM | 19.3 µM | –
Cc1ccc(S(=O)(=O)NC(=O)OC23COCN2COC3)cc1 | – | > 100 µM | > 100 µM | > 100 µM | > 100 µM | > 100 µM | > 100 µM | > 100 µM | – | > 100 µM | – | – | – | – | – | – | – | > 100 µM | – | –
C=CC(=O)N[C@@H](/C=C/C(=O)OCC)Cc1ccc(-c2cc(Cl)cc(Cl)c2)cc1 | – | 97.7 µM | 39.1 µM | > 100 µM | > 100 µM | 63.1 µM | > 100 µM | 79.8 µM | 11.9 µM | 43.8 µM | 18.1 µM | 21.9 µM | 16.6 µM | 16 µM | 21.6 µM | 19.4 µM | 3.35 µM | 28 µM | 11.8 µM | –
CC1CCN(CCOc2ccc(CNc3ccc4nc(CCC5CCCCC5)[nH]c4c3)cc2)CC1 | 6.41 µM | 4.92 µM | 3.01 µM | 3.44 µM | 3.44 µM | 3.4 µM | 3.98 µM | – | 1.52 µM | 2.91 µM | – | 2.24 µM | 1.56 µM | 1.68 µM | 1.76 µM | 1.81 µM | – | – | 1.89 µM | 1.72 µM
CC1CCC2(C)C(CC=C(C=O)C2(O)C=O)C12CO2 (configuration not stated) | 4.01 µM | 5.19 µM | 4.52 µM | 18 µM | 8.03 µM | 10.2 µM | 5.83 µM | 3.97 µM | – | – | – | – | – | – | – | – | – | – | – | –
Cc1ccc(-n2c(-c3cc4c([nH]c5ccccc54)c(-c4cccc(O)c4)n3)n[nH]c2=S)cc1 | 11.6 µM | 16.2 µM | 1.06 µM | 10.6 µM | 17.1 µM | 4.44 µM | 9.84 µM | 4.22 µM | – | – | 0.628 µM | 3.68 µM | 0.306 µM | 1.32 µM | 3.73 µM | 1.18 µM | 1.8 µM | 11.9 µM | 1.67 µM | 0.682 µM
COc1ccc(-c2c3c(N)c4c(nc3nc3c2c(C)nn3-c2ccccc2)CCCC4)cc1 | 6.86 µM | – | 29.2 µM | 19.4 µM | 23.2 µM | 24.6 µM | – | 24.3 µM | 17.2 µM | 33.8 µM | 6.75 µM | – | 14.5 µM | 5.33 µM | 10.1 µM | 12.1 µM | – | – | – | 2.18 µM
O=C(Cc1ccccc1)C(c1ccccc1)S(=O)(=O)c1ccccc1 (configuration not stated) | > 100 µM | > 100 µM | > 100 µM | > 100 µM | > 100 µM | > 100 µM | > 100 µM | > 100 µM | – | – | – | – | – | – | – | – | – | – | – | –
Clc1ccc([I+]c2ccc(Cl)cc2Cl)c(Cl)c1 | 5.32 µM | – | 3.39 µM | 4.99 µM | 3.8 µM | 12 µM | 4.83 µM | 21.1 µM | 2.02 µM | 4.06 µM | 7.14 µM | – | 1.8 µM | 2.14 µM | 1.8 µM | 4.17 µM | – | – | 2.13 µM | 2.09 µM
Nc1nc(C(=O)O)c(N=Nc2ccccc2)c(=O)[nH]1 | > 100 µM | > 100 µM | > 100 µM | > 100 µM | > 100 µM | > 100 µM | > 100 µM | > 100 µM | – | > 100 µM | – | – | – | – | – | – | – | – | – | –
O=C(CO)C1CC2C=CC1C2 (configuration not stated) | > 100 µM | > 100 µM | > 100 µM | > 100 µM | > 100 µM | > 100 µM | > 100 µM | > 100 µM | – | – | – | – | – | – | – | – | – | – | – | –
Clc1nc(Cl)c2ncn(CCOCCn3cnc4c(Cl)nc(Cl)nc43)c2n1 | – | 1.71 µM | 0.381 µM | 0.347 µM | 0.51 µM | 2.77 µM | 0.401 µM | 0.362 µM | 0.208 µM | 0.392 µM | 0.199 µM | 0.772 µM | 0.17 µM | 0.194 µM | 0.227 µM | 1.44 µM | – | – | 0.204 µM | 0.226 µM
c1ccc(-c2csc3ncn4cnnc4c23)cc1 | > 100 µM | > 100 µM | > 100 µM | – | – | > 100 µM | > 100 µM | > 100 µM | – | – | – | – | – | – | – | – | – | – | – | –
CC(=O)[CH-]C(C)=O.CC(=O)[CH-]C(C)=O.CC(=O)[CH-]C(C)=O.[Ga+3] | – | > 100 µM | > 100 µM | > 100 µM | > 100 µM | – | > 100 µM | > 100 µM | – | – | > 100 µM | > 100 µM | > 100 µM | > 100 µM | > 100 µM | – | – | – | > 100 µM | –
O=[N+]([O-])/C=C/c1ccc(Cl)cc1Cl | 20.8 µM | – | 33 µM | 44.5 µM | 46.3 µM | – | 42.9 µM | 30.3 µM | – | – | – | – | – | – | – | – | – | – | – | –
CC(N)CC(=O)O (configuration not stated) | > 5000 µM | > 5000 µM | > 5000 µM | > 5000 µM | > 5000 µM | > 5000 µM | > 5000 µM | > 5000 µM | – | – | – | – | – | – | – | – | – | – | – | –
N#Cc1cc2c(cc1Cl)Sc1nnc(Nc3cccc4ccccc34)n1S2(=O)=O | – | 5.07 µM | 5.2 µM | 10.1 µM | 28.4 µM | 35.1 µM | 3.43 µM | 16.3 µM | 14.6 µM | 28.9 µM | 5.05 µM | 1.91 µM | 2.4 µM | 2.85 µM | 15.1 µM | 17.4 µM | 1.25 µM | 3.67 µM | 1.8 µM | –
COc1ccc2nc3cc(Cl)ccc3c(N3CCN(c4ccnc(N5CCN(C)CC5)n4)CC3)c2c1 | 4.15 µM | 3.2 µM | 3.3 µM | 3.89 µM | 3.9 µM | 26.2 µM | 4.17 µM | 3.29 µM | 3.16 µM | 13.4 µM | 1.73 µM | 1.76 µM | 1.77 µM | 1.99 µM | 1.81 µM | 12.9 µM | – | – | 2.02 µM | 1.61 µM
O=C(c1c(O)cc(O)cc1O)C1Cc2ccccc21 (configuration not stated) | > 100 µM | > 100 µM | > 100 µM | > 100 µM | > 100 µM | > 100 µM | – | – | – | – | – | – | – | – | – | – | – | – | – | –
CCOC(=O)C(CCCNC(=O)OC(C)(C)C)N(Cc1ccc(OC)cc1OC)C(=O)CC(=O)CP(=O)(OCC)OCC (configuration not stated) | > 100 µM | > 100 µM | > 100 µM | > 100 µM | > 100 µM | > 100 µM | > 100 µM | > 100 µM | – | – | – | – | – | – | – | – | – | – | – | –
C=C1C(=O)O[C@H]2[C@H]1CC/C(COC(=O)NCc1c[nH]c3ccc(F)cc13)=C\CC[C@@]1(C)O[C@@H]21 | 1.2 µM | 3 µM | 3.36 µM | 3.9 µM | 4.05 µM | 23.1 µM | 3.89 µM | 3.24 µM | 1.15 µM | 2.5 µM | 1.63 µM | 1.58 µM | 1.63 µM | 1.81 µM | 1.81 µM | 11.1 µM | – | – | 1.83 µM | 0.302 µM
CC(=O)OCC(CC[CH2][Sn]([Cl])([Cl])[c]1ccccc1)OC(C)=O (configuration not stated) | 68.6 µM | > 100 µM | 42.5 µM | 33.9 µM | 42 µM | 44.2 µM | 39.4 µM | 58.6 µM | – | – | 40.9 µM | 27.5 µM | 22 µM | 18.6 µM | 15.7 µM | 21.1 µM | – | – | 19.5 µM | 21.3 µM
O=C1/C(=C/c2ccccc2O)N=C(c2ccccc2)N1c1cc(C(F)(F)F)ccc1Cl | – | 43.7 µM | > 100 µM | 97.4 µM | > 100 µM | > 100 µM | > 100 µM | > 100 µM | – | – | > 100 µM | 18.9 µM | 59.5 µM | 26.2 µM | > 100 µM | 43.7 µM | 6.68 µM | > 100 µM | 80.1 µM | –
N#CC1C(N)=NNC12Nc1ccccc1S2 (configuration not stated) | – | > 100 µM | – | > 100 µM | 76.5 µM | > 100 µM | 22.8 µM | – | 18.7 µM | 57.4 µM | – | 41.5 µM | – | 62.9 µM | 31.5 µM | 25.9 µM | 4.04 µM | 50.3 µM | 5.23 µM | –
C[P+]1(c2ccccc2)CCCCC1 | > 100 µM | > 100 µM | > 100 µM | > 100 µM | > 100 µM | > 100 µM | > 100 µM | > 100 µM | – | – | – | – | – | – | – | – | – | – | – | –
